Legend:
[1] = molecular target: T1, Endothelin receptor type B (Homo sapiens, UniProt P24530); assay: Inhibition of human endothelin B (ETB) receptor expressed in CHO cells; assay type: cell-based
T1 sequence (P24530 whole entry): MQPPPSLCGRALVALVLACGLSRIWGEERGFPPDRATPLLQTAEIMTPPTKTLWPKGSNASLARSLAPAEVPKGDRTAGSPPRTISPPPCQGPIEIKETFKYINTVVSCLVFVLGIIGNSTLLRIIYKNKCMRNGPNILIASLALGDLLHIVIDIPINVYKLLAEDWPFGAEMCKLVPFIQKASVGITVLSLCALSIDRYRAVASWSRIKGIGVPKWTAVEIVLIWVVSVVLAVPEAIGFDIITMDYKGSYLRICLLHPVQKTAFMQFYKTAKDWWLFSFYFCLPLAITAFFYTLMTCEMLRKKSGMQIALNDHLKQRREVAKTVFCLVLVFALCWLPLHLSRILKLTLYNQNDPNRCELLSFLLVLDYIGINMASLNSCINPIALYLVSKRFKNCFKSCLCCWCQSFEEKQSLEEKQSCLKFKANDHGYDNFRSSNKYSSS

Endothelin-1 receptor = molecular target: T2, Endothelin-1 receptor (Homo sapiens, UniProt P25101); assay: Inhibition of human endothelin A (ETA) receptor expressed in CHO cells; assay type: cell-based
T2 sequence (P25101 whole entry): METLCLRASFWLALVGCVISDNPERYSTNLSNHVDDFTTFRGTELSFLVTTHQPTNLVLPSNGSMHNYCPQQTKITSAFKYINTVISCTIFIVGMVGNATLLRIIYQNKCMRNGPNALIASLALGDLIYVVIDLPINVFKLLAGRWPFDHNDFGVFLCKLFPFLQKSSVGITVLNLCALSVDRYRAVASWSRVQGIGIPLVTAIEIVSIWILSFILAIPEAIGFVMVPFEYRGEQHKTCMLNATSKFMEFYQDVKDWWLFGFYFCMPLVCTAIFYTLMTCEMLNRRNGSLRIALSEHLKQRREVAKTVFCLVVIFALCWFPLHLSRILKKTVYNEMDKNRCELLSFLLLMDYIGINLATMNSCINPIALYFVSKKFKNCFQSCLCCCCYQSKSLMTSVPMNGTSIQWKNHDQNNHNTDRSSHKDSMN

Row | IC50 [1] [nM] | IC50 (Endothelin-1 receptor) [nM] | Compound
1 | 60 | 24 | CCCc1cc(Cn2c(CC)nc3c(C)cc(C)nc32)ccc1OC(C(=O)NS(=O)(=O)c1ccc(C(C)C)cc1)c1ccc2c(c1)OCO2 (centres undefined)
2 | 47000 | 11000 | CCCc1cc(Cn2c(CC)nc3c(C)cc(C)nc32)ccc1OC(C(=O)O)c1ccccc1 (centres undefined)
3 | 420 | 600 | CCCc1cc(Cn2c(CC)nc3c(C)cc(C)nc32)cc(CCC)c1OC(C(=O)NS(=O)(=O)c1ccc(CC(C)C)s1)c1ccc2c(c1)OCO2 (centres undefined)
4 | 1900 | 700 | CCCc1cc(Cn2c(CC)nc3c(C)cc(C)nc32)cc(CCC)c1OC(C(=O)NS(=O)(=O)C(C)C)c1ccc2c(c1)OCO2 (centres undefined)
5 | 1300 | 330 | CCCc1cc(Cn2c(CC)nc3c(C)cc(C)nc32)cc(CCC)c1OC(C(=O)NS(=O)(=O)c1ccc(C(C)C)cc1)c1ccc2c(c1)OCO2 (centres undefined)
6 | 800 | 1600 | CCCc1cc(Cn2c(CC)nc3c(C)cc(C)nc32)cc(CCC)c1OC(C(=O)NS(=O)(=O)c1ccccc1)c1ccc2c(c1)OCO2 (centres undefined)
7 | 540 | 820 | CCCc1cc(Cn2c(CC)nc3c(C)cc(C)nc32)cc(CCC)c1OC(C(=O)NS(=O)(=O)c1cccs1)c1ccc2c(c1)OCO2 (centres undefined)
8 | 1600 | 840 | CCCc1cc(Cn2c(CC)nc3c(C)cc(C)nc32)ccc1OC(C(=O)O)c1ccc2c(c1)OCO2 (centres undefined)
9 | 90 | 75 | CCCc1cc(Cn2c(CC)nc3c(C)cc(C)nc32)ccc1OC(C(=O)NS(=O)(=O)c1ccc(CC(C)C)s1)c1ccc2c(c1)OCO2 (centres undefined)
10 | 230 | 38 | CCCc1cc(Cn2c(CC)nc3c(C)cc(C)nc32)cc(CCC)c1OC(C(=O)O)c1ccc2c(c1)OCO2 (centres undefined)
11 | 1200 | 500 | CCCc1cc(Cn2c(CC)nc3c(C)cc(C)nc32)cc(CCC)c1OC(C(=O)NS(C)(=O)=O)c1ccc2c(c1)OCO2 (centres undefined)

Row | Compound | IC50 [1] [nM] | IC50 (Endothelin-1 receptor) [nM]
12 | CCCc1cc(Cn2c(CC)nc3c(C)cc(C)nc32)cc(CCC)c1OC(C(=O)O)c1cc(Br)c(OC)c(OC)c1Br (centres undefined) | 31000 | 11000

Reference: ChEMBL document CHEMBL1128156, “Potent dual antagonists of endothelin and angiotensin II receptors derived from -phenoxyphenylacetic acids (Part III)” (Bioorg Med Chem Lett, 1995)
